Source: US9132118B2, “Taxane analogs for the treatment of brain cancer” (Tapestry Pharmaceuticals, Inc., priority 2007, dated 2015)
Entries after “also recorded” stand apart in the source; their conditions may differ. Where two headings read alike, the source gives them in different places.

Key:
[1] = Phase 1 Study S-(1)-02, i.v. every 21 days, safety and pharmacokinetics; assay type: in vivo, patients; details: for AUC0-24 / Cl / Vss / t1/2: Study S-(1)-02 (15:85 Cremophor EL-P/ethanol), i.v., first dose; for half-life: human, plasma, intravenous
Protocol: treatment cycles are repeated every 28 days in patients who remain eligible for continued treatment. Study S-(1)-O1 is currently being conducted in the United States. […] Study S-(I)-02 is currently being conducted in the United States and in Israel.
Plasma pharmacokinetics of S-(1) were assessed following the first dose of S-(1) in both studies. Plasma samples were analyzed for S-(1) using a validated LC/MS-MS method.
Treatment cohorts were expanded to 6 pts in the face of dose-limiting toxicity (DLT); pts could remain on study until the development of progressive disease or an intolerable adverse event. DLT was defined as Gr 4 heme toxicity lasting 7 days; febrile neutropenia, Gr 3 thrombocytopenia with bleeding, Gr 3 elevation of transaminases lasting 7 days or any other Gr ¾ toxicity other than nausea or vomiting.

[2] = system: central nervous system; assay: Central nervous system (CNS) safety study in rats; assay type: in vivo, rat
Protocol: This study was conducted at ClinTrials BioResearch (CTBR, Montreal, Quebec, Canada) as a GLP study.
Results: All animals were observed twice daily for signs of ill health or reaction to treatment, except on day of arrival and necropsy. A Functional Observation Battery
(FOB) assessment, along with grip strength, hind limb splay and body temperature measurements were performed for all animals once pre-dose and at approximately 15 minutes, 1 hour, 4 hours, 8 hours and 24 hours post-dose. After the last observation, all animals were euthanized without further examination.

[3] = Efficacy of oral or iv S-(1) in mouse xenografts; assay type: in vivo, nude mice; details: mouse, in vivo, po; nude mice; from efficacy studies and MTD studies; read-out: apparent oral bioavailability
Protocol: (§1) Summary of Experimental Protocol: Human neuroblastoma tumor cells were implanted via subcutaneous injection of 1-10×10^6 cells in nude mice. Tumors were allowed to grow to 200 mg+/−50 mg in size. Drug dosing was initiated, and tumor volume and body weight were recorded twice weekly.
(§2) The mean value for % body weight change and % tumor volume increase for each experimental group was plotted including error bars for the standard error of the mean.
(§3) Other metrics for assessing antitumor effects include: % T/C values as calculated by the following formula:
(§4) [formula] Log Kill=(T−C)/3.32×(Td)

[4] = system: human tumor xenografts; assay: Efficacy of oral or iv S-(1) in mouse xenografts; assay type: in vivo, nude mice; details: human tumor xenografts in nude mice
Protocol: as §1, §2, §3, §4

[5] = S-(1) pharmacokinetics in mouse, plasma and brain levels after single IV bolus; assay type: in vivo, mice; details: single IV 20 mg/kg; for AUC (0-t) / AUC (0-∞) / Cmax / MRT (expo): male CD-1 mice
Protocol: S-(I) was formulated in 7% Ethanol: 3% Cremophor EL: 90% D5W (5% Dextrose in water). The formulated drug was administered as a single IV bolus via tail vein injection. The details are set out below:
Sample Collection timing: Terminal blood (plasma) and brain specimens were collected at 9 times post-dose, with 4 mice per sample time. Sample collection times:
Blood collection: A terminal blood sample was collected from each mouse via cardiac puncture. The whole blood was collected on wet ice, spun down immediately (at 4° C.), and plasma stored frozen at −20° C. until analysis. The anticoagulant used was K2EDTA. Brain Sample Collection: Whole brains were removed by dissection. Brains were collected on wet ice, weighed, and stored at −20° C.

[6] = system: human U251 (glioblastoma) CNS tumor cells; details: for median day of death and median survival time: iv, 240 h
Description: Tumor Model: Each animal was implanted with one million U251 human CNS tumor cells from an in vitro cell line by ic injection with a 25 gauge needle. The day of tumor implantation (May 24, 2006) was designated as day 0. A sufficient number of mice were implanted so that animals with body weights in a range as narrow as possible were selected for the trial on the day of treatment initiation (day 1 after tumor implantation). Animals were randomly assigned to the treatment groups and individually identified by earmark codes.
A portion of this solution was then diluted with the complete vehicle to achieve the lower dosing concentration of 1.2 mg/mL. […] Temozolomide (Temodar, Schering Corporation) was prepared on each day of injection in Klucel+tween 80 at a concentration of 4 mg/mL. Temozolomide was administered within 5 minutes of formulation on the basis of exact body weight using a volume of 0.2 mL/10 g of body weight.
Data Collection: Animal health surveillance was conducted and mortality data were collected daily. The animals were weighed twice weekly starting with the first day of treatment.
Study Duration: The study was terminated 100 days after tumor implantation. Any animal found moribund or whose body weight dropped below 14 g was euthanized prior to study termination.
Parameters Evaluated: Number of 100-day survivors, median day of death, and the increase in lifespan based on median day of death and expressed as a percentage (% ILS), median survival time and the % ILS based on median survival time.
Administration of the Ringer's solution was initiated when animal body weights dropped by greater than 10% and continued until the animal recovered, died, or was euthanized.

[7] = S-(1) Injection mouse PK parameters, IV and oral; assay type: in vivo

## C=C[C@H]1O[C@H]2CC3OC[C@@]3(OC(C)=O)[C@H]3[C@H](OC(=O)c4ccccc4)[C@]4(C(C)(C)O)C[C@H](OC(=O)[C@H](O)[C@H](CC(C)C)NC(=O)OC(C)(C)C)C(C)=C4[C@H](OC(C)=O)[C@H](O1)[C@]23C (stereo partly drawn) [S-(1)]
[1]; 56 mg/m^2, plasma
  AUC0-24: 2530 ± 847 ng·h/mL
  Cl: 18.9 ± 9.53 L/hr/m^2
  Vss: 232 ± 93.6 L/m^2
  t1/2: 8.96 ± 7.09 h
[1]; 84 mg/m^2, plasma
  AUC0-24: 3710 ng·h/mL
  Cl: 15.4 L/hr/m^2
  Vss: 300 L/m^2
[1]; 126 mg/m^2, plasma
  AUC0-24: 6110 ± 3030 ng·h/mL
  Cl: 22.1 ± 11.2 L/hr/m^2
  Vss: 166 ± 105 L/m^2
  t1/2: 6.27 ± 3.64 h
[1]; 185 mg/m^2, plasma
  AUC0-24: 7260 ± 2620 ng·h/mL
  Cl: 24.7 ± 12.2 L/hr/m^2
  Vss: 215 ± 116 L/m^2
  t1/2: 3.43 ± 7.31 h
[1]; Study S-(1)-02, i.v. every 21 days, 185 mg/m^2 (2 patients)
  dose limiting toxicity: Grade 3 sensory neuropathy; also recorded: Gr 3 peripheral sensory neuropathy
[1]; every 21 days in heavily pre-treated patients
  dose that can be safely administered: 160 mg/m^2
[1]; every 21 days, 14 patients
  patients who experienced Gr 4 neutropenia: 1 pt
[1]; every 21 days, 56-185 mg/m^2, 14 patients
  drug related adverse events: mucositis, vomiting, diarrhea, neutropenia, thrombocytopenia, myalgias and peripheral neuropathy
[1]; every 21 days, dose of 160 mg/m^2
  dose limiting toxicity: no DLT was observed
[1]; every-21-days study
  dose dependence of AUC (in words): generally dose linear
[1]; every-21-days study summary, dose of 126 mg/m^2
  clearance: 24.7±12.2 L/hr/m^2
[1]; every-21-days study, patients with advanced cancer
  tumor response: 1 pt with pancreatic cancer had a confirmed response
[1]; 126 mg/m2, every-21-days study summary, dose of 126 mg/m^2, read-out: t1/2 (converted)
  half-life: 10.6 h
[1]; Study S-(1)-02, after first dose, read-out: Plasma t1/2, range over dose groups
  half-life: 3.43 to 8.96 h
[2]; single intravenous 6.25, 12.5 or 25 mg/kg, male Sprague Dawley rats, 15 minutes, 1, 4, 8 and 24 hours post-dose
  biological effect on central nervous system (functional observational battery, grip strength, hind limb splay, body temperature): no biological effects
[2]; single intravenous 6.25, 12.5 or 25 mg/kg, male rats
  deaths or treatment-related clinical signs: no deaths or treatment-related clinical signs
[2]; single intravenous dose, male Sprague Dawley rats
  no adverse effect level: 25 mg/kg
[3]
  bioavailability: 70 to 80%
[4]
  efficacy / antitumor activity in mouse xenografts (in words): demonstrated antitumor activity against multiple human tumor xenografts in nude mice, including xenografts that expressed mdr-1 and that were resistant to other taxanes; also recorded: suppressed the growth of multiple human tumor xenografts in nude mice, including xenografts that expressed mdr-1 and that were resistant to other taxanes; also recorded: shows efficacy
[5]; Brain
  AUC (0-t): 64984.9 ng·h/mL
  AUC (0-∞): 88742.9 ng·h/mL
  Cmax: 3726.6 ng/mL
  MRT (expo): 42.5 h
[5]; Plasma
  AUC (0-t): 16870.2 ng·h/mL
  AUC (0-∞): 16951.2 ng·h/mL
  Cmax: 1550.2 ng/mL
  MRT (expo): 17.6 h
[5]; mouse model
  passage of the blood-brain barrier (in words): not impeded by the blood-brain barrier
[6]; 12 mg/kg
  median day of death and median survival time: 14.5 days
[6]; 20 mg/kg
  median day of death and median survival time: 16 days
[6]; monotherapy or combination treatment, intracranial xenograft
  effect against the U251 human CNS tumor cells (in words): moderate effect
[7]; IV 10/mg/kg
  AUCinf: 7.738 µM·h
  AUClast: 6.298 µM·h
  CL: 24.8 mL/min/kg
  Vdss: 13.35 L/kg
  t½: 6.1 h
[7]; Oral 10 mg/kg
  AUCinf: 3.609 µM·h
  AUClast: 3.434 µM·h
  Cmax: 460 nM
  t½: 5.1 h
[7]; Oral 10 mg/kg vs IV
  F: 47%
[7]; in vivo, Oral 10 mg/kg
  Tmax: 6 h
